From ChEMBL document CHEMBL1201862, “PubChem BioAssay data set” (2004)
Each block holds one molecule with its values, some of them ahead of it. Activity calls are given as the source filed them.

Legend:
[1] = biological target: Neuropeptides B/W receptor type 1 (Homo sapiens, UniProt P48145); test: Fluorescence-based dose response cell-based high throughput screening assay to identify antagonists of the G-protein coupled receptor 7 (GPR7). [Related pubchem assays: 1952 (Screening assay (GPR7 antagonists).), 1880 (Summary AID.)]; format: functional
[2] = biological target: DNA dC->dU-editing enzyme APOBEC-3A (Homo sapiens, UniProt P31941); test: Dose Response confirmation of small molecule APOBEC3A DNA Deaminase Inhibitors via a fluorescence-based single-stranded DNA deaminase assay. [Related pubchem assays (depositor defined):AID493011, AID493024]; format: functional
[3] = biological target: DNA dC->dU-editing enzyme APOBEC-3G (Homo sapiens, UniProt Q9HC16); format: functional;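 further: Dose-response counterscreen measuring inhibition of APOBEC3G DNA deaminase activity, run while confirming APOBEC3A inhibitors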
[4] = biological target: Melanin-concentrating hormone receptor 1 (Homo sapiens, UniProt Q99705); test: Fluorescence-based counterscreen for antagonists of the G-protein coupled receptor 7 (GPR7): cell-based high throughput dose response assay to identify antagonists of the melanin-concentrating hormone receptor 1 (MCHR1).; format: functional
[5] = biological target: Glyceraldehyde-3-phosphate dehydrogenase (Homo sapiens, UniProt P04406)
[6] = biological target: T1, Dual specificity protein phosphatase 6 (Rattus norvegicus, UniProt Q64346)
T1 sequence (Q64346 whole entry): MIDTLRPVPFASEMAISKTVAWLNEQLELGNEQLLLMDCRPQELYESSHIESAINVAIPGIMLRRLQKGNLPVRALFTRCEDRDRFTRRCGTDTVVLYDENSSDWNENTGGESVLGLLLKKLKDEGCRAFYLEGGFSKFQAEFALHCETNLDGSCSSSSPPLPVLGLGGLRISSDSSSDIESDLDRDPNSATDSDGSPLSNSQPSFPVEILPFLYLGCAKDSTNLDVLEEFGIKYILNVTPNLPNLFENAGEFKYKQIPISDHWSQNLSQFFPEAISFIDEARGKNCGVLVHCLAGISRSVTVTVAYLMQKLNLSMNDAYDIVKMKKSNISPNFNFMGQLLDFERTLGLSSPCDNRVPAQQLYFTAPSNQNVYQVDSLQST

[7] = biological target: T2, Tyrosine-protein phosphatase non-receptor type 7 (Homo sapiens, UniProt P35236); format: functional
T2 sequence (P35236 whole entry): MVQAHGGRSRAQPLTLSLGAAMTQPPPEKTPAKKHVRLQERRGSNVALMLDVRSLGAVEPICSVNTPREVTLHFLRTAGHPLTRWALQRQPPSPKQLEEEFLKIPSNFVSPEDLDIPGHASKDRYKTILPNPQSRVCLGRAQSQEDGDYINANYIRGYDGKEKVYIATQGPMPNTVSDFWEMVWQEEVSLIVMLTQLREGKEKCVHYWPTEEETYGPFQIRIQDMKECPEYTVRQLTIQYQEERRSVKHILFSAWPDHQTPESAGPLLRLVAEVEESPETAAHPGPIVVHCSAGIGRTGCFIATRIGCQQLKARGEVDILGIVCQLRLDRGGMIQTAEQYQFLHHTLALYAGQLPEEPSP

[8] = biological target: T1, Dual specificity protein phosphatase 6; format: functional
[9] = biological target: Lysosomal acid glucosylceramidase (Homo sapiens, UniProt P04062); test: Dose response cell-based high throughput screening assay to identify enhancers of beta-glucosidase activity. [Related pubchem assays: 784 ]; format: functional
[10] = tested on: Streptococcus; test: GAS UMAA2166 growth inhibition – luminescence, BacTiterGlo, counter-screen for streptokinase expression inhibitor project, dose response (AID 1915); format: functional, organism-based;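 further: potency for reduction of bacterial viability or growth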
[11] = tested on: Streptococcus sp. 'group A'; test: Streptococcus pyogenes SK(-)GAS viability under kanamycin – luminescence, BacTiterGlo, confirmation, counter-screen for streptokinase expression inhibitor project, dose response (AID 1900); format: functional, organism-based
[12] = tested on: HEK293; test: Fluorescence-based counterscreen for potentiators or agonists of NPY-Y1: cell-based high-throughput dose response assay for inhibitors of cyclic nucleotide gated ion channel (CNGC) activity. In this assay, the parental HEK293 cell line transfected with a cyclic-nucleotide gated ion channel (CNGC)-based cAMP sensor is used to measure inhibition of isoproterenol-induced CNGC …; format: functional; settings: Homo sapiens
[13] = biological target: Serine/threonine-protein phosphatase (Homo sapiens, UniProt Q9BPW0); test: Counterscreen for inhibitors of PP1: fluorescence-based biochemical high throughput dose response assay to identify inhibitors of Protein Phosphatase 5 (PP5). [Related pubchem assays: 2034 (Summary (PP5 inhibitors)), 1987 (PP5 inhibitors in singlate), 2235 (PP1 inhibitors in singlate)]
[14] = biological target: Serine/threonine-protein phosphatase PP1-alpha catalytic subunit (Homo sapiens, UniProt P62136); test: inhibition of protein phosphatase 1 activity – biochemical, fluorescence, dose response (AID 2403);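 further: phosphatase turnover of OMFP into fluorescent 3-O-methylfluorescein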
Chain of Serine/threonine-protein phosphatase PP1-alpha catalytic subunit (P62136 whole entry): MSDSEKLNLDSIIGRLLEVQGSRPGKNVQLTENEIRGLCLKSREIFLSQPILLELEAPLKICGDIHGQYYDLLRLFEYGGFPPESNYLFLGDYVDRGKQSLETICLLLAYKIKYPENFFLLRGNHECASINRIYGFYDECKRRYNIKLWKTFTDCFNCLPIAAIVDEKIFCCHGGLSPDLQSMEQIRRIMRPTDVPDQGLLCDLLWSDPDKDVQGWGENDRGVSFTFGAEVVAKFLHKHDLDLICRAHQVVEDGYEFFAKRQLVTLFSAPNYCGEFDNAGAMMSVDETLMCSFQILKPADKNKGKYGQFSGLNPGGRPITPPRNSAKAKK

Chain of Melanin-concentrating hormone receptor 1 (Q99705 whole entry): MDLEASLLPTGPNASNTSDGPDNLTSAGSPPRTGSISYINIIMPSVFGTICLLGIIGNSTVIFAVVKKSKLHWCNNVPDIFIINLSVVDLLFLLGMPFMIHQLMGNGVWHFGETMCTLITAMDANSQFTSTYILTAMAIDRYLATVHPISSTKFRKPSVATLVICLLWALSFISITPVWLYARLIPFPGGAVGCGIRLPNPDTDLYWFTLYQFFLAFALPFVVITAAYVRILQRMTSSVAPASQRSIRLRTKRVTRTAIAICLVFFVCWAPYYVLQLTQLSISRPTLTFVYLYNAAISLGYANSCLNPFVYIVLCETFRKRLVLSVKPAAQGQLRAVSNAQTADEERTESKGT
Chain of DNA dC->dU-editing enzyme APOBEC-3A (P31941 whole entry): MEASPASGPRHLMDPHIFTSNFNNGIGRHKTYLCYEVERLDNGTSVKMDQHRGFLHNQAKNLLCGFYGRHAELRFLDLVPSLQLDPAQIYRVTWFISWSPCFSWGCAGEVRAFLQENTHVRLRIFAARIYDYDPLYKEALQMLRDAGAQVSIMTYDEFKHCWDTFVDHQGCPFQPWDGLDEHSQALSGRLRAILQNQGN
Chain of Neuropeptides B/W receptor type 1 (P48145 whole entry): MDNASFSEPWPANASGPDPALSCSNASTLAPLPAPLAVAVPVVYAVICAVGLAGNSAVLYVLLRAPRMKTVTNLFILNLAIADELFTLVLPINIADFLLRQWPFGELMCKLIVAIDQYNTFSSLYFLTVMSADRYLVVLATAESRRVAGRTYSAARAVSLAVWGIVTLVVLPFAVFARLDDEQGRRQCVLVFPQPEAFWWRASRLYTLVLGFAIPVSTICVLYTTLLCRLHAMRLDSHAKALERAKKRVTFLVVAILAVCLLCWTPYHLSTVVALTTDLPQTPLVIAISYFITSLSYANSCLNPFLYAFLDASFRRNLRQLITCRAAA
Chain of Lysosomal acid glucosylceramidase (P04062 whole entry): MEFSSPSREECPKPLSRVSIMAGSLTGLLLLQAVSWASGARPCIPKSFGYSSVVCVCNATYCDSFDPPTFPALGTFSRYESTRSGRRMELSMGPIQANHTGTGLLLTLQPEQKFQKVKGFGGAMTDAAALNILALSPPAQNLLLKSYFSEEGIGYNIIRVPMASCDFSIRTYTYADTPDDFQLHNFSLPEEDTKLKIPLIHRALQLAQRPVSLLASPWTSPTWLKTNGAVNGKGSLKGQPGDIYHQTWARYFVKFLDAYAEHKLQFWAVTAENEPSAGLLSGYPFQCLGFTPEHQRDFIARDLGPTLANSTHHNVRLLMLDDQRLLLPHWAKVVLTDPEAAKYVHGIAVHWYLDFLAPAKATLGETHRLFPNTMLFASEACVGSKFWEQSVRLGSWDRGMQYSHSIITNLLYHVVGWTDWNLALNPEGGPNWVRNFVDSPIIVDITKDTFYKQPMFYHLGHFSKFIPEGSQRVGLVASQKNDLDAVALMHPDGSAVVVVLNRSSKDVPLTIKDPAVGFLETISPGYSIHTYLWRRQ
Chain of DNA dC->dU-editing enzyme APOBEC-3G (Q9HC16 whole entry): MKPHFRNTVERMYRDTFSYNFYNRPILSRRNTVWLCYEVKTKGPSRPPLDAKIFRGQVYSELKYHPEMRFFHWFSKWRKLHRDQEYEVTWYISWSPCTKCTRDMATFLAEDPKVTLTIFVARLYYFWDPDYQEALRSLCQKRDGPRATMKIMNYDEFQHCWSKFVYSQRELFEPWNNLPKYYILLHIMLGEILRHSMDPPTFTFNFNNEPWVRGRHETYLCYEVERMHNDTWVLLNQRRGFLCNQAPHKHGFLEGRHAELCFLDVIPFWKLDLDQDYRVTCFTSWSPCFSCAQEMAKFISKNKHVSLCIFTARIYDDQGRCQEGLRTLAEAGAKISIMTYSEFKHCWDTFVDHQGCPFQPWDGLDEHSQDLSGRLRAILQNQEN
Chain of Serine/threonine-protein phosphatase (Q9BPW0 whole entry): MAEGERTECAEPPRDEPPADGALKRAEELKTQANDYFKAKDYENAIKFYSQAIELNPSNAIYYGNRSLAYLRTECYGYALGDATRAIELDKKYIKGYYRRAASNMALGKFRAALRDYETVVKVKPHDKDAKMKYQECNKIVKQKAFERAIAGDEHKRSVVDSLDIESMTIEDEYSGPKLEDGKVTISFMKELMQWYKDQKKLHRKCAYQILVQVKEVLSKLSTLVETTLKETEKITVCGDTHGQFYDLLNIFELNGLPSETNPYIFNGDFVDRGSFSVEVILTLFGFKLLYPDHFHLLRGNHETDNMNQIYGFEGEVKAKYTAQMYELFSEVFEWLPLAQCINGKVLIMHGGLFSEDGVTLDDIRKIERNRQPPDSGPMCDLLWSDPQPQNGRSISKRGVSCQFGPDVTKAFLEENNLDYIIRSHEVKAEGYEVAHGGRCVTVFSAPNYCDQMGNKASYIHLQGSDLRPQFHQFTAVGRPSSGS
Chain of Glyceraldehyde-3-phosphate dehydrogenase (P04406 whole entry): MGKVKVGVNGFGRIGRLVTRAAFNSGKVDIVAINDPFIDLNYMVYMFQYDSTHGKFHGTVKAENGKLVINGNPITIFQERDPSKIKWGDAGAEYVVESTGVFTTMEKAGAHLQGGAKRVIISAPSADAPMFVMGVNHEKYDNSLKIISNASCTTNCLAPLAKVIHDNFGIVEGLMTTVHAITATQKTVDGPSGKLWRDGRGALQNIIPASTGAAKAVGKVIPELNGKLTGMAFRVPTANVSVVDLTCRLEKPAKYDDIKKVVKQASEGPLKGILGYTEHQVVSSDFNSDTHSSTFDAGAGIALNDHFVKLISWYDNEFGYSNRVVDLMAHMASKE

SMILES: FC(F)(F)c1cccc(C[n+]2c3n(c4ccc(C(F)(F)F)cc42)CCCCC3)c1
IC50 [1]: 19.7 µM (not active) | IC50 [2]: 2.17 µM (active) | IC50 [3]: 3.21 µM (active) | IC50 [4]: 13 µM (not active)

IC50 [5]: > 100 µM (not active) | IC50 [6]: > 100 µM (inactive) | IC50 [7]: > 100 µM (not active) | IC50 [8]: > 100 µM (inactive)
SMILES: CCn1c(=O)n(CC)c(=O)n([C@@H](Cc2ccccc2)C(=O)O)c1=O

EC50 [9]: > 50 µM (not active)
SMILES: CCOC(=O)c1oc2c(C)c(O)ccc2c(=O)c1-c1nncn1-c1ccccc1

SMILES: CCOc1ccc(NC(S)=NN=C(S)Nc2cccc(C(F)(F)F)c2)cc1
EC50 [10]: > 150 µM (not active) | EC50 [11]: 24.4 µM (active) | IC50 [12]: > 35.4 µM (not active)

SMILES: O=C(O)C1C2CCC(O2)C1C(=O)NC1CCCCC1 (centres undefined)
IC50 [13]: 3.03 µM (active) | IC50 [14]: 3.7 µM (active)
